Results: ChEMBL document CHEMBL1133054, “Noncovalent thrombin inhibitors incorporating an imidazolylethynyl P1” (Bioorg Med Chem Lett, 2000)

Key:
Prothrombin = Prothrombin (Homo sapiens, UniProt P00734); experiment: In vitro inhibition of human thrombin.
[1] = Maximum time (Tmax) required to reach Cmax in rats; format: ADME, organism-based; settings: rat, in vivo
[2] = Peak plasma concentration (Cmax) in rats; format: ADME, organism-based; settings: rat
[3] = Area under curve (AUC) at a dose of […] mg/kg in rats; format: ADME, organism-based; settings: rat, in vivo, 30 mg/kg
Serine protease 1 = target: T1, Serine protease 1 (Bos taurus, UniProt P00760); experiment: Inhibitory activity against Bovine Trypsin
T1 sequence (P00760 whole entry): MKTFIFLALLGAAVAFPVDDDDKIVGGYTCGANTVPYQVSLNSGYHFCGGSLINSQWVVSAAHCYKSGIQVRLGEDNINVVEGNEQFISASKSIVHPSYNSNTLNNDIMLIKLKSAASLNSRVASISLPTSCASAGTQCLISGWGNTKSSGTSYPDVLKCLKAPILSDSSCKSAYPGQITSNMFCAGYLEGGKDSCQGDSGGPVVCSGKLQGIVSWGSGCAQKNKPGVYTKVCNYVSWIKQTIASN

[4] = Peak plasma concentration (Cmax) was determined; format: ADME, organism-based; settings: rat
Rattus norvegicus = experiment: Oral bioavailability; format: ADME, organism-based; settings: in vivo
[5] = Area under curve at a dose of 10 mg/kg; format: ADME, organism-based; parameters: dose 10 mg/kg; settings: in vivo
[6] = Plasma Clearance was determined; format: ADME, organism-based; settings: rat
[7] = Half life (t1/2) was determined; format: ADME, organism-based; settings: rat, in vivo
[8] = Bioavailability; format: ADME, organism-based; settings: eutheria, in vivo
[9] = Area under curve at a dose of 30 mg/kg; format: ADME, organism-based; parameters: dose 30 mg/kg; settings: rat, in vivo

Row | SMILES | Ki (Prothrombin) [µM] | Ki (Serine protease 1) [µM] | other results
1 | O=C(O)CN[C@H](CC1CCCCC1)C(=O)N1CCC[C@H]1C(=O)NCC#Cc1cnc[nH]1 | 0.48 | – | Cmax [4]: 1600 nM
2 | NC1CCC(CNC(=O)[C@@H]2CCCN2C(=O)[C@H](N)C(c2ccccc2)c2ccccc2)CC1 (stereo not given in full) | – | – | F (Rattus norvegicus): Oral bioavailability
3 | NC1CCC(CNC(=O)[C@@H]2CCCN2C(=O)[C@H](NS(=O)(=O)Cc2ccccc2)C(c2ccccc2)c2ccccc2)CC1 (stereo not given in full) | – | – | F (Rattus norvegicus): Oral bioavailability
4 | CS(=O)(=O)N[C@@H](C(=O)N1CCC[C@H]1C(=O)NCC#Cc1c[nH]cn1)C(c1ccccc1)c1ccccc1 | 0.0026 | 14 | –
5 | CN(C(=O)[C@H](Cc1ccc(C(=N)NN)cc1)NS(=O)(=O)c1ccc2ccccc2c1)C1CCCC1 | – | 33 | –
6 | CC(C)(C)OC(=O)N[C@@H](C(=O)N1CCC[C@H]1C(=O)NCC#Cc1cnc[nH]1)C(C1CCCCC1)C1CCCCC1 | 0.029 | 30 | –
7 | NS(=O)(=O)N[C@@H](C(=O)N1CCC[C@H]1C(=O)NCC#Cc1c[nH]cn1)C(c1ccccc1)c1ccccc1 | 0.0008 | 18 | –
8 | O=C(NCC#Cc1cnc[nH]1)[C@@H]1CCCN1C(=O)[C@H](NS(=O)(=O)Cc1ccccc1)C(c1ccccc1)c1ccccc1 | 0.003 | 24 | –
9 | COC(=O)N[C@@H](C(=O)N1CCC[C@H]1C(=O)NCC#Cc1c[nH]cn1)C(C1CCCCC1)C1CCCCC1 | 0.015 | 30 | –
10 | N[C@@H](C(=O)N1CCC[C@H]1C(=O)NCC#Cc1cnc[nH]1)C(c1ccccc1)c1ccccc1 | 0.012 | 25 | –

Second part, led by results:

Row | Ki (Prothrombin) [µM] | Ki (Serine protease 1) [µM] | SMILES | other results
11 | 5.4 | – | CC(C)(C)OC(=O)N[C@H](Cc1ccccc1)C(=O)N1CCC[C@H]1C(=O)NCC#Cc1cn[nH]c1 | –
12 | – | 50 | CC(C)(C)OC(=O)N[C@@H](C(=O)N1CCC[C@H]1C(=O)NCC#Cc1c[nH]cn1)C(c1ccccc1)c1ccccc1 | Tmax [1]: 1 h; Cmax [2]: 14600 nM; AUC [3]: 29 µM·h
13 | 5.5 | – | Cn1cncc1C#CCNC(=O)[C@@H]1CCCN1C(=O)[C@@H](Cc1ccccc1)NC(=O)OC(C)(C)C | –
14 | 1.2 | – | CC(C)(C)OC(=O)N[C@H](Cc1ccccc1)C(=O)N1CCC[C@H]1C(=O)NCC#Cc1cnc[nH]1 | –
15 | > 20 | – | CC(C)(C)OC(=O)N[C@H](Cc1ccccc1)C(=O)N1CCC[C@H]1C(=O)NCC#Cc1ccncc1 | –
16 | > 20 | – | CC(C)(C)OC(=O)N[C@H](Cc1ccccc1)C(=O)N1CCC[C@H]1C(=O)NCC#Cc1ccc(N)nc1 | –
17 | 0.014 | 24 | COC(=O)N[C@@H](C(=O)N1CCC[C@H]1C(=O)NCC#Cc1c[nH]cn1)C(c1ccccc1)c1ccccc1 | Tmax [1]: 1 h; AUC [5]: 26 µM·h; clearance [6]: 12.8 mL/min/kg; Cmax [4]: 23600 nM; half-life [7]: 0.667 h; bioavailability [8]: 58%; AUC [9]: 46 µM·h
18 | 0.044 | 47 | O=C(O)CN[C@@H](C(=O)N1CCC[C@H]1C(=O)NCC#Cc1cnc[nH]1)C(c1ccccc1)c1ccccc1 | Cmax [4]: 1600 nM
19 | 0.208 | – | CC(=O)N[C@@H](C(=O)N1CCC[C@H]1C(=O)NCC#Cc1cnc[nH]1)C(c1ccccc1)c1ccccc1 | Cmax [4]: 1600 nM
